Read-outs that look alike come from different tables or passages of the source. Values belong to the molecule of their own block, whether it stands above or below them.
Legend:
[1] = Absorption and bioavailability after oral administration of femhrt ⅕ / NA/EE tablets; format: in vivo; settings: for bioavailability: human, after oral dosing, first-pass metabolism, read-out: absolute bioavailability
Description: The term “effective dose” means the amount of a progestin and an estrogen required to delay the onset or treat symptoms manifested by skin aging or acne in a particular patient. […] Norethindrone acetate and EE are rapidly absorbed from femhrt ⅕ tablets, with maximum plasma concentrations of norethindrone and EE generally occurring 1 to 2 hours postdose. […] For example, a method for preventing and treating acne in a patient in need of treatment comprising administering an effective amount of Estrostep which contains 1 mg NA and a gradually increasing dose of ethinyl estradiol; 20 mcg×5 days, 30 mcg×7 days, and 35 mcg×9 days in a pharmaceutically acceptable carrier. Other dosage forms may be administered.
Norethindrone acetate and EE are rapidly absorbed from femhrt ⅕ tablets, with maximum plasma concentrations of norethindrone and EE generally occurring 1 to 2 hours postdose. […] The extent of norethindrone absorption is increased by 27% following administration of NA/EE tablets with food.

[2] = Population pharmacokinetic analysis of NA/EE tablets; settings: for average steady-state concentrations (Css): femhrt ⅕ (1 mg NA/5 mcg EE), estimated from population pharmacokinetic analysis
Description: However, the multiple-dose pharmacokinetics were studied at a dose of 1 mg NA/10 mcg EE in 18 postmenopausal women.

[3] = Multiple-dose pharmacokinetics of 1 mg NA/10 mcg EE tablets in 18 postmenopausal women; format: in vivo, human; settings: for Cmax / AUC(0-t) / Tmax / half-life: female, human; for AUC(0-t): read-out: AUC(0-24); for half-life: read-out: t½ (converted)
[4] = Distribution: volume of distribution; settings: human, in vivo
Source text: (§1) Volume of distribution of norethindrone and EE ranges from 2 to 4 L/kg. Plasma protein binding of both steroids is extensive (>95%); norethindrone binds to both albumin and SHBG, whereas EE binds only to albumin.

Plasma protein binding = format: in vitro ADME; settings: human
Source text: as §1

[5] = plasma, oral, Single-Dose (Day 1), 1 mg NA/10 mcg EE tablets, Mean (SD)
[6] = plasma, oral, Steady-State (Day 87), 1 mg NA/10 mcg EE tablets, Mean (SD)

- deacetylation to norethindrone ([1]; in vivo, po): completely and rapidly deacetylated
- effect of age on pharmacokinetics ([2]; in vivo): not affected by age
Compound: C#C[C@]1(OC(C)=O)CC[C@H]2C3CCC4=CC(=O)CCC4[C@H]3CCC21C (stereo partly drawn) [NA, (17-alpha)-17-(acetyloxy)-19-norpregna-4-en-20-yn-3-one]

- CL/F ([3]; Single-Dose (Day 1), 1 mg NA/10 mcg EE tablets, Mean (SD)): 588 (416) mL/min
- CL/F ([3]; Steady-State (Day 87), 1 mg NA/10 mcg EE tablets, Mean (SD)): 226 (139) mL/min
- Cmax [3, 5]: 6 ng/mL
- AUC(0-t) [3, 5]: 29.7 ng·h/mL
- Tmax ([3]; plasma, oral, Single-Dose (Day 1), 1 mg NA/10 mcg EE tablets, Mean (SD), read-out: Tmax): 1.8 h
- half-life [3, 5]: 10.3 h
- Cmax [3, 6]: 10.7 ng/mL
- AUC(0-t) [3, 6]: 81.8 ng·h/mL
- Tmax ([3]; plasma, oral, Steady-State (Day 87), 1 mg NA/10 mcg EE tablets, Mean (SD), read-out: Tmax): 1.8 h
- half-life [3, 6]: 13.3 h
- increase of extent of absorption with food ([1]; NA/EE tablets with food): 27%
- bioavailability ([1]; in vivo): ~64%
- dose proportionality of mean steady-state concentrations ([2]; 1 mg NA/5 mcg EE and 1/10 compared to 0.5 mg NA/2.5 mcg EE tablets): slightly more than proportional to dose
- average steady-state concentrations (Css) [2]: 2.6 ng/mL
- Vd [4]: 2 to 4 L/kg
- fraction unbound (Plasma protein binding): < 0.05
Compound: C#C[C@]1(O)CC[C@H]2[C@@H]3CCC4=CC(=O)CC[C@@H]4[C@H]3CC[C@@]21C [Norethindrone, norethindrone]

- Tmax ([3]; in vivo, Tmax): 2.2 h
- bioavailability ([1]; in vivo): ~55%
- effect of high fat meal on absorption ([1]; in vivo): decreases rate but not extent
- average steady-state concentrations (Css) [2]: 0.0114 ng/mL
- dose proportionality of mean steady-state plasma concentrations ([2]; in vivo): proportional to dose
- dose proportionality of steady-state concentrations ([2]; in vivo): less than proportional increase
- effect of age on pharmacokinetics ([2]; in vivo): not affected by age
- Vd [4]: 2 to 4 L/kg
- fraction unbound (Plasma protein binding): < 0.05
Compound: C#C[C@]1(O)CC[C@H]2C3CCc4cc(O)ccc4[C@H]3CCC21C (stereo partly drawn) [Ethinyl Estradiol]
